Assay results as given in patent US6465477B1, “Stable pharmaceutical composition” (Kowa Company, Ltd., priority 1997, dated 2002).

Experiment: Decomposition products of NK-104 and fluvastatin in aqueous solution of pH 3, analyzed by HPLC
Format: physicochemical
Settings: aqueous solution pH 3, 40° C.
Protocol: Decomposition products of NK-104 were analyzed by HPLC after incubation for two days at 40° C. in aqueous solution of pH 3. […] The decomposition products of fluvastatin were also analyzed for comparison.
The conditions under which NK-104 and Fluvastatine decomposition products were analyzed are as follows:
HPLC system: Type LC-10 (Shimadz, Japan)
Column: DEVELOSIL ODS-HG-5 (NOMURA CHEM., Japan)
Mobil Phase: MeOH/0.02 mol/L phosphate buffer (pH 3)=7/3
Sample: NK-104 or fluvastatin/pH 3/40° C., 2 days
Detector: SPD-MLOAVP, UV 245 mm

O=C(O)C[C@H](O)C[C@H](O)/C=C/c1c(C2CC2)nc2ccccc2c1-c1ccc(F)cc1 [NK-104, (E)-3,5-dihydroxy-7-[4′-4 ″-fluorophehyl-2 ′-cyclopropyl-quinolin-3′-yl]-6-heptenoic acid]
Quantity of decomposition products (2 days): a small quantity of one type of decomposition product | Decomposition products (types) (two days): a single product, a lactonized form of NK-104
